The source of these data is PMC8634768 (ChemistryOpen, 2021).

In one assay the target is Hsp90α (Homo sapiens, UniProt P07900). Kind of assay: fluorescence polarization competition with FITC-geldanamycin. It counts as binding. A general note: Fluorescence polarisation rises when a labelled molecule tumbles more slowly, as on binding a larger partner.
The target in another assay is PDHK1 (Homo sapiens, UniProt Q15118). Kind of assay: HotSpot […]-ATP radiometric filter-binding kinase assay. It counts as biochemical.

pIC50: −log10 of the molar value.

What is called pIC50 is −log10 of the IC50, conventionally taken in molar units. Low readings indicate a large IC50, high ones a small IC50.

Sequence of PDHK1 (Q15118 29-436): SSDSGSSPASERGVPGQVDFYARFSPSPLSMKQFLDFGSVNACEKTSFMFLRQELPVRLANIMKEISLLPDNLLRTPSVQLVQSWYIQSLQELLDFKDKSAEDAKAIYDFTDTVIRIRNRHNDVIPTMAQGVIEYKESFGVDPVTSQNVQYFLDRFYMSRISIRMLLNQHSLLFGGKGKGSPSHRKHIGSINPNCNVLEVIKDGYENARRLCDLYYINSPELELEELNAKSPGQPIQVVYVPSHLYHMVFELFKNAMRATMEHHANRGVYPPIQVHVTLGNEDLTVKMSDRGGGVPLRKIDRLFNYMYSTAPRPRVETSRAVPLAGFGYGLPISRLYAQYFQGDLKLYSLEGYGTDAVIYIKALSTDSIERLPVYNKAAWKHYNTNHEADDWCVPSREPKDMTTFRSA

Turning to `CC(C)c1cc(-n2nnc(C(=O)Nc3cccc(NS(C)(=O)=O)c3)c2-c2ccncc2)c(O)cc1O` [4a, 1‐(2,4‐dihydroxy‐5‐isopropylphenyl)‐N‐[3‐(methylsulfonamido)phenyl]‐5‐(pyridin‐4‐yl)‐1H‐1,2,3‐triazole‐4‐carboxamide], the results for the pIC50 on Hsp90α and at PDHK1 were 8.15 and 4.54, respectively.
The compound `CC(C)c1cc(-n2nnc(C(=O)Nc3c(F)ccc(NS(C)(=O)=O)c3F)c2-c2ccncc2)c(O)cc1O` [4b, N‐[2,6‐difluoro‐3‐(methylsulfonamido)phenyl]‐1‐(2,4‐dihydroxy‐5‐isopropylphenyl)‐5‐(pyridin‐4‐yl)‐1H‐1,2,3‐triazole‐4‐carboxamide] gave a pIC50 at Hsp90α of 5.77.
Still for that read-out and setting: then `CCS(=O)(=O)Nc1ccc(F)c(NC(=O)c2nnn(-c3cc(C(C)C)c(O)cc3O)c2-c2ccncc2)c1F` [4c, 1‐(2,4‐dihydroxy‐5‐isopropylphenyl)‐N‐[3‐(ethylsulfonamido)‐2,6‐difluorophenyl]‐5‐(pyridin‐4‐yl)‐1H‐1,2,3‐triazole‐4‐carboxamide], with 5.96.
`CCCS(=O)(=O)Nc1ccc(F)c(NC(=O)c2nnn(-c3cc(C(C)C)c(O)cc3O)c2-c2ccncc2)c1F` [4d, N‐[2,6‐difluoro‐3‐(propylsulfonamido)phenyl]‐1‐(2,4‐dihydroxy‐5‐isopropylphenyl)‐5‐(pyridin‐4‐yl)‐1H‐1,2,3‐triazole‐4‐carboxamide]: the values for the negative logarithm of the IC50 (pIC50) on Hsp90α and on PDHK1 were 7.52 and 4.42, respectively.
Consider `O=C1Nc2ccc(I)cc2C1=Cc1cc(Br)c(O)c(Br)c1` [GW5074, reference compound], for which the pIC50 at PDHK1 was 5.15.
